Legend:
[1] = as a function of the treatment time interval; Fig. 18

SMILES: CC[C@H](C)[C@H](NC(=O)[C@H](Cc1ccc(O)cc1)NC(=O)[C@@H](NC(=O)[C@H](CCCNC(=N)N)NC(=O)[C@@H](N)CC(=O)O)C(C)C)C(=O)N[C@@H](Cc1c[nH]cn1)C(=O)N1CCC[C@H]1C(=O)O [Angiotensin-(1-7), Asp-Arg-Val-Tyr-Ile-His-Pro]
- side-effects in the clinical trial (5 to 25 mcg/kg/24h range as stated): very safe without severe Ang-(1-7)-related side-effects
- hypotension as side-effect (Ang-(1-7) administration in the defined concentration range): not a side-effect
- averaged blood pressure (SBP, MAP, DBP) (at 11 am and 11 pm as a function of ICU days with infusion, Fig. 10, 11): not significantly influenced
- averaged heart rate (at 11 am and 11 pm as a function of ICU days with infusion, Fig. 14, 15): not influences
- average temperatures (at 11 am during infusion, Fig. 16): not significantly influenced
- averaged Angiotensin-(1-7) levels [1]: does not result in increased Ang-(1-7) levels
